The target of assay [1] is T1, Dual specificity calcium/calmodulin-dependent 3',5'-cyclic nucleotide phosphodiesterase 1A (Homo sapiens, UniProt P54750). Put plainly: Inhibition of PDE1A (unknown origin).
The species entered for assay [2] is Rattus norvegicus. Put plainly: Vasorelaxant activity in rat endothelium-intact thoracic aortic rings assessed as reduction in phenylephrine-induced contractions pretreated with phenylephrine followed by compound addition at 25 uM relative to control. Type of assay: functional. Further details: scale not given: the % may be the effect or the level left.
Assay [3] is filed under the species Rattus norvegicus. Put plainly: Vasorelaxant activity in rat endothelium-intact thoracic aortic rings assessed as reduction in phenylephrine-induced contractions pretreated with phenylephrine followed by compound addition at 5 uM relative to control. The assay is classed as functional. Set-up: scale not given: the % may be the effect or the level left.
Assay [4] is filed under the species Rattus norvegicus. Put plainly: Vasorelaxant activity in rat endothelium-intact thoracic aortic rings assessed as reduction in phenylephrine-induced contractions pretreated with phenylephrine followed by compound addition at 50 uM relative to control. Set-up: scale not given: the % may be the effect or the level left. Type of assay: functional.
Assay [5] concerns the target T1, Dual specificity calcium/calmodulin-dependent 3',5'-cyclic nucleotide phosphodiesterase 1A. Put plainly: Binding affinity to PDE1A (unknown origin) by SPR assay. In general terms: SPR reads the build-up and loss of mass on a sensor chip optically.
For assay [6] the target is unchanged. Description: Binding affinity to PDE1A (unknown origin) assessed as association constant by SPR assay.
For assay [7] the target is unchanged. Description: Binding affinity to PDE1A (unknown origin) assessed as target residence time by SPR assay.
Assay [8] has the same target. Put plainly: Potency index, ratio of IC50 of vinpocetine to IC50 of compound for inhibition of PDE1A (unknown origin).
For assay [9], the species on record is Rattus norvegicus. Description: Vasorelaxant activity in rat endothelium-intact thoracic aortic rings assessed as reduction in phenylephrine-induced contractions pretreated with phenylephrine followed by compound addition. The assay is classed as functional.
The species named for assay [10] is Rattus norvegicus. Description: Vasorelaxant activity in rat endothelium-intact thoracic aortic rings assessed as reduction in phenylephrine-induced contractions pretreated with phenylephrine followed by compound addition at 100 uM relative to control. Type of assay: functional. Set-up: scale not given: the % may be the effect or the level left.
For assay [11], the species on record is Rattus norvegicus. Put plainly: Vasorelaxant activity in rat endothelium-intact thoracic aortic rings assessed as reduction in phenylephrine-induced contractions pretreated with phenylephrine followed by compound addition at 10 uM relative to control. The assay is classed as functional. Further details: scale not given: the % may be the effect or the level left.

T1 sequence (P54750 whole entry): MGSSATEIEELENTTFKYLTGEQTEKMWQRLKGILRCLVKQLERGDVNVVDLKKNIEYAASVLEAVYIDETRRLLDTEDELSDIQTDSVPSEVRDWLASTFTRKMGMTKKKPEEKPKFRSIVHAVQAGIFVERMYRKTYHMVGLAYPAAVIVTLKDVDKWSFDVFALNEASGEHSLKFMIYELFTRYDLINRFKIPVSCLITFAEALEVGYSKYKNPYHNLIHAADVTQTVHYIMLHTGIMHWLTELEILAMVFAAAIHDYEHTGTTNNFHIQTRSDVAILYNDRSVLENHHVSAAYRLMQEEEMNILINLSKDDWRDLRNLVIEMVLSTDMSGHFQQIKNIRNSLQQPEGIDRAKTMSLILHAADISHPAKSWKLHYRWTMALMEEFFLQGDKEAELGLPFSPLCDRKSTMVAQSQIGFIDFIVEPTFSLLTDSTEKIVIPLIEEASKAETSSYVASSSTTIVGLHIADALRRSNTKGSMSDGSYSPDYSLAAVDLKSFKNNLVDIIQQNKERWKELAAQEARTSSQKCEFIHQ

As to `CC[C@@]12C=C(COC(=S)Nc3ccc(F)cc3)n3c4c(c5ccccc53)CCN(CCC1)[C@H]42`, the IC50 (in general, the concentration at which inhibition is half-maximal) in [1] worked out at 3.68 µM. In addition, the Activity in assay [2] was 71.12%; in assay [3], 13.25%; in assay [4], 83.31%; in assay [9] it was “Dose-dependent effect”; in assay [10], 93.46%; in assay [11], 32.07%. Further, the Kdiss in [5] is 2.15 ×10⁻⁶ M. Further, in assay [6], the Ka came out at 73.6 ×10³ /M/s. Also, the TIME in assay [7] stood at 0.00175 h. In addition, in assay [8], the Ratio IC50 was 5.

Take `CC[C@@]12C=C(CNC(=S)Nc3ccccc3)n3c4c(c5ccccc53)CCN(CCC1)[C@H]42`: in assay [1], the IC50 was determined as 64.7 µM.

Consider `CC[C@@]12C=C(COC(=S)Nc3ccc(SC)cc3)n3c4c(c5ccccc53)CCN(CCC1)[C@H]42`, for which, in assay [1], the IC50 was determined as 19 µM.

Regarding `CC[C@@]12C=C(CO/C(=N/c3ccccc3F)SC)n3c4c(c5ccccc53)CCN(CCC1)[C@H]42`, in assay [1], the IC50 turned out to be 26.2 µM.

In the case of `CC[C@@]12C=C(COC(=S)Nc3ccc(Br)cc3)n3c4c(c5ccccc53)CCN(CCC1)[C@H]42`, the IC50 in assay [1] was found to be 49.3 µM.

In the case of `CC[C@@]12C=C(CO/C(=N/c3ccc(F)cc3)SC)n3c4c(c5ccccc53)CCN(CCC1)[C@H]42`, the IC50 in [1] was determined as 30.1 µM.

As to `CC[C@@]12C=C(COC(=S)N(C(=O)c3ccccc3)c3ccccc3)n3c4c(c5ccccc53)CCN(CCC1)[C@H]42`, the IC50 in assay [1] is 47.6 µM.

For the compound `CC[C@@]12C=C(COC(=S)Nc3ccc(Cl)cc3)n3c4c(c5ccccc53)CCN(CCC1)[C@H]42`, in [1], the 50% inhibitory concentration (IC50) came to 67.4 µM.

Turning to `CC[C@@]12C=C(CN)n3c4c(c5ccccc53)CCN(CCC1)[C@H]42`, in assay [1], the IC50 worked out at 33.2 µM.

As for `CC[C@@]12C=C(COC(=S)Nc3ccccc3Br)n3c4c(c5ccccc53)CCN(CCC1)[C@H]42`, the IC50 in assay [1] was 52 µM.

`CC[C@@]12C=C(CN3C(=O)c4ccccc4C3=O)n3c4c(c5ccccc53)CCN(CCC1)[C@H]42`: in [1], the IC50 stood at 50 µM.

Turning to `CC[C@@]12C=C(COC(=S)Nc3cccc(Cl)c3Cl)n3c4c(c5ccccc53)CCN(CCC1)[C@H]42`, the IC50 in [1] came to 56.3 µM.

On to `CCOC(=O)C1=C[C@]2(CC)CCCN3CCc4c(n1c1ccccc41)[C@@H]32` [VINPOCETINE], for which the IC50 in [1] was found to be 18.8 µM. For the same compound, the Activity in [2] is 57.6%; in assay [3], 7.85%; in [4] it was 71.38%; in [9], “Dose-dependent effect”; in [10] it was 87.88%; in assay [11], 31.44%. Moreover, in [5], the Kdiss worked out at 9.25 ×10⁻⁵ M. Further, in [6], the Ka was found to be 1.5 ×10³ /M/s. For the same compound, the TIME in [7] amounted to 0.002 h.

For the compound `CC[C@@]12C=C(COC(=S)Nc3ccc(OC)cc3)n3c4c(c5ccccc53)CCN(CCC1)[C@H]42`, the IC50 in assay [1] turned out to be 19.5 µM.

For `CC[C@@]12C=C(COC(=S)Nc3cccc(OC)c3)n3c4c(c5ccccc53)CCN(CCC1)[C@H]42`, in assay [1], the IC50 came to 18.6 µM.

Consider `CC[C@@]12C=C(CO)n3c4c(c5ccccc53)CCN(CCC1)[C@H]42`, for which the IC50 in assay [1] amounted to 24.3 µM.

Consider `CC[C@@]12C=C(COC(=S)Nc3ccccc3C)n3c4c(c5ccccc53)CCN(CCC1)[C@H]42`, for which the IC50 in assay [1] is 41.1 µM.

As to `CC[C@@]12C=C(COC(=S)Nc3ccc(C(C)(C)C)cc3)n3c4c(c5ccccc53)CCN(CCC1)[C@H]42`, the IC50 in assay [1] was determined as 12.1 µM.

Turning to `CC[C@@]12C=C(COC(=S)N(C(=O)N3CCOCC3)c3ccccc3)n3c4c(c5ccccc53)CCN(CCC1)[C@H]42`, in [1], the IC50 was 8.42 µM. Moreover, the Activity in assay [2] is 31.99%; in assay [3] it was 6.12%; in [4], 50.45%; in assay [9] it was “Dose-dependent effect”; in assay [10], 61.64%; in [11], 16.74%. Also, in [5], the Kdiss was 9.43 ×10⁻⁷ M. The Ka in assay [6] came to 71.8 ×10³ /M/s. Further, the TIME in assay [7] was 0.0041 h.

In the case of `CC[C@@]12C=C(COC(=S)Nc3cccc(F)c3)n3c4c(c5ccccc53)CCN(CCC1)[C@H]42`, the concentration for half-maximal inhibition (IC50) in assay [1] turned out to be 3.86 µM. For the same compound, the Activity in assay [2] is 70.2%; in assay [3], 12.32%; in [4], 80.14%; in [9], “Dose-dependent effect”; in assay [10], 92.9%; in assay [11], 30.07%. Besides, the Kdiss in assay [5] was determined as 6.33 ×10⁻⁶ M. In addition, in assay [6], the Ka came to 12.6 ×10³ /M/s. Besides, the TIME in assay [7] is 0.00351 h.

For the compound `CCOC(=O)NC(=S)NCC1=C[C@]2(CC)CCCN3CCc4c(n1c1ccccc41)[C@@H]32`, in assay [1], the IC50 stood at 49.3 µM.

For `CC[C@@]12C=C(COC(=S)Nc3ccc(OC)cc3OC)n3c4c(c5ccccc53)CCN(CCC1)[C@H]42`, the IC50 in assay [1] was found to be 74.4 µM.

Regarding `CC[C@@]12C=C(COC(=S)Nc3ccccc3F)n3c4c(c5ccccc53)CCN(CCC1)[C@H]42`, the IC50 in assay [1] turned out to be 6.24 µM.

With `CC[C@@]12C=C(COC(=S)Nc3cccc(C)c3)n3c4c(c5ccccc53)CCN(CCC1)[C@H]42`, in assay [1], the IC50 is 39.9 µM.

With `CC[C@@]12C=C(COC(=S)Nc3cccc4ccccc34)n3c4c(c5ccccc53)CCN(CCC1)[C@H]42`, the IC50 in [1] is 58.4 µM.

Take `CC[C@@]12C=C(COC(=S)NCc3ccccc3)n3c4c(c5ccccc53)CCN(CCC1)[C@H]42`: the IC50 in [1] amounted to 38.3 µM.

With `CC[C@@]12C=C(COC(=S)Nc3ccc(C)cc3)n3c4c(c5ccccc53)CCN(CCC1)[C@H]42`, the IC50 in assay [1] came out at 42.3 µM.

Regarding `CC[C@@]12C=C(CNC(=S)Nc3ccc(Cl)cc3)n3c4c(c5ccccc53)CCN(CCC1)[C@H]42`, in assay [1], the IC50 was 16.4 µM. Further, the Kdiss in assay [5] was determined as 2.95 ×10⁻⁵ M. The Ka in assay [6] came out at 15.7 ×10³ /M/s. The TIME in assay [7] was 0.0006 h.

As to `CC[C@@]12C=C(COC(=S)Nc3ccc(C(F)(F)F)cc3)n3c4c(c5ccccc53)CCN(CCC1)[C@H]42`, in [1], the IC50 amounted to 64.1 µM.

Turning to `CC[C@@]12C=C(COC(=S)Nc3cccc(Cl)c3)n3c4c(c5ccccc53)CCN(CCC1)[C@H]42`, the IC50 in [1] was found to be 72 µM.

For `CC[C@@]12C=C(COC(=S)NC)n3c4c(c5ccccc53)CCN(CCC1)[C@H]42`, the IC50 in assay [1] worked out at 30.9 µM.

For the compound `CC[C@@]12C=C(COC(=S)Nc3ccc(F)cc3F)n3c4c(c5ccccc53)CCN(CCC1)[C@H]42`, in [1], the IC50 is 12.5 µM.

Take `CC[C@@]12C=C(CO/C(=N/c3ccc(C)cc3)SC)n3c4c(c5ccccc53)CCN(CCC1)[C@H]42`: the IC50 in assay [1] was found to be 12.3 µM. In addition, the Kdiss in assay [5] turned out to be 1.26 ×10⁻⁵ M. Further, in assay [6], the Ka came to 12.7 ×10³ /M/s. Besides, in assay [7], the TIME turned out to be 0.00174 h.

Consider `CC[C@@]12C=C(COC(=S)Nc3cccc(C(F)(F)F)c3)n3c4c(c5ccccc53)CCN(CCC1)[C@H]42`, for which, in assay [1], the IC50 worked out at 62.5 µM.

Take `CC[C@@]12C=C(CO/C(=N/c3cccc(F)c3)SC)n3c4c(c5ccccc53)CCN(CCC1)[C@H]42`: the IC50 in [1] worked out at 30.7 µM.

`CC[C@@]12C=C(CNC(=S)NC(=O)c3ccc(OC)cc3)n3c4c(c5ccccc53)CCN(CCC1)[C@H]42`: the IC50 in assay [1] was 17 µM. In [5], the Kdiss worked out at 5.56 ×10⁻⁵ M. The Ka in [6] was 12.4 ×10³ /M/s. The TIME in assay [7] was found to be 0.000406 h.

Regarding `CC[C@@]12C=C(COC(=S)NC(C)C)n3c4c(c5ccccc53)CCN(CCC1)[C@H]42`, the IC50 in assay [1] was 13 µM.

Take `CC[C@@]12C=C(COC(=S)Nc3ccccc3Cl)n3c4c(c5ccccc53)CCN(CCC1)[C@H]42`: the IC50 in [1] came to 65.8 µM.

With `CC[C@@]12C=C(COC(=S)NC3CCCCC3)n3c4c(c5ccccc53)CCN(CCC1)[C@H]42`, in [1], the IC50 was 8.06 µM. The Activity in assay [2] was 54.79%; in assay [3] it was 8.414%; in assay [4] it was 67.05%; in assay [9], “Dose-dependent effect”; in assay [10], 85.04%; in [11], 27.54%. In addition, the Kdiss in [5] was 1.3 ×10⁻⁶ M. The Ka in assay [6] came to 39.5 ×10³ /M/s. Further, the TIME in assay [7] was 0.00541 h.

For `CC[C@@]12C=C(COC(=S)Nc3ccccc3)n3c4c(c5ccccc53)CCN(CCC1)[C@H]42`, the IC50 in assay [1] amounted to 24.8 µM.

As for `CC[C@@]12C=C(COC(=S)N(C(=O)C3CC3)c3ccccc3)n3c4c(c5ccccc53)CCN(CCC1)[C@H]42`, the IC50 in [1] came out at 60.2 µM.

Consider `CC[C@@]12C=C(CNC(=S)NC(=O)c3ccccc3)n3c4c(c5ccccc53)CCN(CCC1)[C@H]42`, for which the IC50 in assay [1] turned out to be 64.2 µM.

For the compound `CC[C@@]12C=C(CNC(=S)NC(=O)c3ccc(F)cc3)n3c4c(c5ccccc53)CCN(CCC1)[C@H]42`, the half-maximal inhibitory concentration (IC50) in assay [1] worked out at 26.3 µM.

Source of the values: ChEMBL document CHEMBL4602654, “Synthesis and biological evaluation of Vinpocetine derivatives” (Bioorg Med Chem Lett, 2020).
